Source: patent US8778951B2, “Heteroaryl compounds and their uses” (Novartis AG, priority 2009, dated 2014)

How the values were obtained:
neointima formation = conditions: rats; cited from earlier work
Cdk9/cyclinT1 = Cdk9/cyclinT1 (Homo sapiens (Human), UniProt P50750); assay: Cdk9/CyclinT1 IMAP Protocol (fluorescence polarization kinase assay); assay type: biochemical; conditions: Table 2; generated using one of the two Cdk9/cyclinT1 assays (IMAP or Alpha Screen), not specified which; unit inferred
Procedure, shortened: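 Reaction used 4 nM Cdk9/cyclinT1, 100 nM 5TAMRA-cdk7tide peptide and 6 uM ATP in 100 mM Tris pH 7.2 with MgCl2, 0.01% Tween-20, 1 mM DTT and 2.5% DMSO, running 4.5 h. Phosphopeptide was captured by IMAP binding reagent for >1 h, then read by fluorescence polarization (ex 531/em 595 nm).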

Cdk9/cyclinT1, sequence (P50750 whole entry): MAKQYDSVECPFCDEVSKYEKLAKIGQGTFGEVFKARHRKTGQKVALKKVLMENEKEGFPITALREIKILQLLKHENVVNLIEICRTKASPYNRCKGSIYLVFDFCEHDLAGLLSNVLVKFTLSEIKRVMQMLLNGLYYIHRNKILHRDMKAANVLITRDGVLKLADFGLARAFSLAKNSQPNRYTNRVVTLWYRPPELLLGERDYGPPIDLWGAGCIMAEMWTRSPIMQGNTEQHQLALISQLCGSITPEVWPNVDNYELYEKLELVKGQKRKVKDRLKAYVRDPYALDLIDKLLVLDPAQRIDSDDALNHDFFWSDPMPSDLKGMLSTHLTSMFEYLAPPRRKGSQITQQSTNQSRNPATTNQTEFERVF
Cdk9/cyclinT1, sequence (O60563 whole entry partner): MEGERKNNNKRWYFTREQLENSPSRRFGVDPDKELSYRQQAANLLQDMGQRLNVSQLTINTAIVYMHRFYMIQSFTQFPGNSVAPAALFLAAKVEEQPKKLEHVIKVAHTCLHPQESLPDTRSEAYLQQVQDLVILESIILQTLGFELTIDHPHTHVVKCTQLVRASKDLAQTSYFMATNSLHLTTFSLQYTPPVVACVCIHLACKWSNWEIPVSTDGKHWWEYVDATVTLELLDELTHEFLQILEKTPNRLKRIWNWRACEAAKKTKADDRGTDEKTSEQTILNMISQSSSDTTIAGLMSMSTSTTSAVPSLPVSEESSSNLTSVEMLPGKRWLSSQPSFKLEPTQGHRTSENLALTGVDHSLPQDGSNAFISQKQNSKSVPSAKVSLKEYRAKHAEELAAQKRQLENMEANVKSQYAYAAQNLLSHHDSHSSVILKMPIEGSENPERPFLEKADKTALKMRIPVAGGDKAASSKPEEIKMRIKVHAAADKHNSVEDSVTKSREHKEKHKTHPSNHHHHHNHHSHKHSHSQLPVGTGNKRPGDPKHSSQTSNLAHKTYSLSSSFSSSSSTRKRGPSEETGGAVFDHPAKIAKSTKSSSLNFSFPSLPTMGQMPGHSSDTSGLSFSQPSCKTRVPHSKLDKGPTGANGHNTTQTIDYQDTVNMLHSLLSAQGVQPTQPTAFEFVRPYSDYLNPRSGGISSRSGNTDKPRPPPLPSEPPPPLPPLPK

Question: Which “inhibition of neointima formation” value (neointima formation) does the source give for `COc1ccc(CNc2nc(N(CCO)CCO)nc3c2ncn3C(C)C)cc1` [CVT-313] here?
Answer: Its value is “greater than 80%”.

Question: With `COC[C@@H](C)N[C@H]1CC[C@H](Nc2cc(-c3nc(NCC4CCOCC4)ccc3C(F)(F)F)c(Cl)cn2)CC1` [Compound 309] as the compound, how does the IC50 (Cdk9/cyclinT1) read?
Answer: Its IC50 is 35 nM.

Question: Which IC50 (Cdk9/cyclinT1) does the source give for `COC[C@@H](C)N[C@H]1CC[C@H](Nc2cc(-c3cccc(NCC4(C#N)CCOCC4)n3)c(Cl)cn2)CC1` [Compound 310, 4-((5′-chloro-2′-(trans-4-((R)-1-methoxypropan-2-yl-amino)cyclohexylamino)-2,4′-bipyridin-6-ylamino)methyl)tetrahydro-2H-pyran-4-carbonitrile] here?
Answer: The IC50 was 0.3 nM.

Question: For `CC1(CNc2cccc(-c3cc(N[C@H]4CC[C@H](N)CC4)ncc3Cl)n2)CCOCC1` [Compound 311, N2′-(trans-4-aminocyclohexyl)-5′-chloro-N6-((4-methyltetrahydro-2H-pyran-4-yl)methyl)-2,4′-bipyridine-2′,6-diamine], which IC50 (Cdk9/cyclinT1) is on record?
Answer: The IC50 was 1 nM.

Question: For `CC1(CNc2nc(-c3cc(N[C@H]4CC[C@H](N)CC4)ncc3Cl)ccc2F)CCOCC1` [Compound 312, N2′-(trans-4-aminocyclohexyl)-5′-chloro-5-fluoro-N6-((4-methyltetrahydro-2H-pyran-4-yl)methyl)-2,4′-bipyridine-2′,6-diamine], which IC50 (Cdk9/cyclinT1) is on record?
Answer: Its IC50 is 0.3 nM.

Question: With `N[C@H]1CC[C@H](Nc2cc(-c3cccc(NCC4(F)CCOCC4)n3)c(Cl)cn2)CC1` [Compound 313, N2′-(trans-4-aminocyclohexyl)-5′-chloro-N6-((4-fluorotetrahydro-2H-pyran-4-yl)methyl)-2,4′-bipyridine-2′,6-diamine] as the compound, how does the IC50 (Cdk9/cyclinT1) read?
Answer: Its IC50 is 1 nM.

Question: Which IC50 (Cdk9/cyclinT1) does the source give for `COCCN[C@H]1CC[C@H](Nc2cc(-c3ccc(F)c(NCC4CCOCC4)n3)c(Cl)cn2)CC1` [Compound 314] here?
Answer: The IC50 was 1 nM.

Question: Which IC50 (Cdk9/cyclinT1) does the source give for `[2H]C([2H])(Nc1cccc(-c2cc(N[C@H]3CC[C@H](NC[C@@H]4CCCO4)CC3)ncc2Cl)n1)C1CCOCC1` [Compound 317, 5′-chloro-N6-(dideutero-(tetrahydro-2H-pyran-4-yl)methyl)-N2′-(trans-4-(((S)-tetrahydrofuran-2-yl)methyl)aminocyclohexyl)-2,4′-bipyridine-2′,6-diamine] here?
Answer: Its IC50 is 99 nM.

Question: For `N[C@H]1CC[C@H](Nc2cc(-c3nc(NCC4CCOCC4)c(F)cc3F)c(Cl)cn2)CC1` [Compound 318], which IC50 (Cdk9/cyclinT1) is on record?
Answer: Its IC50 is 0.26 nM.

Question: With `CC(CS(C)(=O)=O)N[C@H]1CC[C@H](Nc2cc(-c3ccc(F)c(NCC4CCOCC4)n3)c(Cl)cn2)CC1` (stereo partly shown) [Compound 319] as the compound, how does the IC50 (Cdk9/cyclinT1) read?
Answer: Its IC50 is 4 nM.

Question: Which IC50 (Cdk9/cyclinT1) does the source give for `CC1(C)OC[C@@H](CN[C@H]2CC[C@H](Nc3cc(-c4nc(NCC5CCOCC5)ccc4Cl)c(Cl)cn3)CC2)O1` [Compound 320, 3,5′-dichloro-N2′-(trans-4-(((R)-2,2-dimethyl-1,3-dioxolan-4-yl)methyl)aminocyclohexyl)-N6-((tetrahydro-2H-pyran-4-yl)methyl)-2,4′-bipyridine-2′,6-diamine] here?
Answer: The IC50 was 1 nM.

Question: Which IC50 (Cdk9/cyclinT1) does the source give for `O=S1(=O)CCC(N[C@H]2CC[C@H](Nc3cc(-c4ccc(F)c(NCC5CCOCC5)n4)c(Cl)cn3)CC2)C1` (stereo partly shown) [Compound 322] here?
Answer: The IC50 was 3 nM.

Question: For `COC[C@@H](C)N[C@H]1CC[C@H](Nc2cc(-c3nc(NC[C@@H]4CCCOC4)ccc3Cl)c(Cl)cn2)CC1` [Compound 323, 3,5′-dichloro-N2′-(trans-4-((R)-1-methoxypropan-2-yl-amino)cyclohexyl)-N6-(((S)-tetrahydro-2H-pyran-3-yl)methyl)-2,4′-bipyridine-2′,6-diamine], which IC50 (Cdk9/cyclinT1) is on record?
Answer: The IC50 was 1 nM.

Question: With `Fc1ccc(-c2cc(N[C@H]3CC[C@H](NCC4CCO4)CC3)ncc2Cl)nc1NCC1CCOCC1` (stereo partly drawn) [Compound 324, 5′-chloro-5-fluoro-N2′-(trans-4-(oxetan-2-yl-methylamino)cyclohexyl)-N6-((tetrahydro-2H-pyran-4-yl)methyl)-2,4′-bipyridine-2′,6-diamine] as the compound, how does the IC50 (Cdk9/cyclinT1) read?
Answer: The IC50 was 2 nM.

Question: For `CS(=O)(=O)CCN[C@H]1CC[C@H](Nc2cc(-c3ccc(F)c(NCC4CCOCC4)n3)c(Cl)cn2)CC1` [Compound 326], which IC50 (Cdk9/cyclinT1) is on record?
Answer: Its IC50 is 0.49 nM.

Question: For `COC[C@@H](C)N[C@H]1CC[C@H](Nc2cc(-c3nc(NC[C@H]4CCCOC4)ccc3Cl)c(Cl)cn2)CC1` [Compound 327, 3,5′-dichloro-N2′-(trans-4-((R)-1-methoxypropan-2-yl-amino)cyclohexyl)-N6-(((R)-tetrahydro-2H-pyran-3-yl)methyl)-2,4′-bipyridine-2′,6-diamine], which IC50 (Cdk9/cyclinT1) is on record?
Answer: The IC50 was 1 nM.

Question: With `O=S1(=O)CCC(CN[C@H]2CC[C@H](Nc3cc(-c4ccc(F)c(NCC5CCOCC5)n4)c(Cl)cn3)CC2)CC1` [Compound 331] as the compound, how does the IC50 (Cdk9/cyclinT1) read?
Answer: The IC50 was 1 nM.

Question: For `CC1(CN[C@H]2CC[C@H](Nc3cc(-c4ccc(F)c(NCC5CCOCC5)n4)c(Cl)cn3)CC2)OCCO1` [Compound 333, 5′-chloro-5-fluoro-N2′-(trans-4-((2-methyl-1,3-dioxolan-2-yl)methyl)aminocyclohexyl)-N6-((tetrahydro-2H-pyran-4-yl)methyl)-2,4′-bipyridine-2′,6-diamine], which IC50 (Cdk9/cyclinT1) is on record?
Answer: The IC50 was 4 nM.

Question: For `COCCN[C@H]1CC[C@H](Nc2cc(-c3ccc(F)c(NCC4(C#N)CCOCC4)n3)c(Cl)cn2)CC1` [Compound 339], which IC50 (Cdk9/cyclinT1) is on record?
Answer: Its IC50 is 0.17 nM.

Question: For `COC[C@@H](C)N[C@H]1CC[C@H](Nc2cc(-c3ccc(F)c(NCC4(C#N)CCOCC4)n3)c(Cl)cn2)CC1` [Compound 340, 4-((5′-chloro-5-fluoro-2′-(trans-4-((R)-1-methoxypropan-2-yl-amino)cyclohexylamino)-2,4′-bipyridin-6-ylamino)methyl)tetrahydro-2H-pyran-4-carbonitrile], which IC50 (Cdk9/cyclinT1) is on record?
Answer: Its IC50 is 0.23 nM.

Question: Which IC50 (Cdk9/cyclinT1) does the source give for `N#CC1(CNc2nc(-c3cc(N[C@H]4CC[C@H](N)CC4)ncc3Cl)ccc2F)CCOCC1` [Compound 341] here?
Answer: The IC50 was 0.15 nM.

Question: Which IC50 (Cdk9/cyclinT1) does the source give for `CCCN(CCC)[C@H]1CC[C@H](Nc2cc(-c3ccc(F)c(NCC4(C#N)CCOCC4)n3)c(Cl)cn2)CC1` [Compound 343] here?
Answer: The IC50 was 0.31 nM.

Question: With `CC1(CNc2nc(-c3cc(N[C@H]4CC[C@H](NC5CCS(=O)(=O)CC5)CC4)ncc3Cl)ccc2F)CCOCC1` [Compound 346] as the compound, how does the IC50 (Cdk9/cyclinT1) read?
Answer: Its IC50 is 1 nM.

Question: For `CC1(CNc2nc(-c3cc(NC4CCC(NC5CS(=O)(=O)C5)CC4)ncc3Cl)ccc2F)CCOCC1` (stereo not shown) [Compound 347], which IC50 (Cdk9/cyclinT1) is on record?
Answer: The IC50 was 1 nM.

Question: With `O=S1(=O)CCC(N[C@H]2CC[C@H](Nc3cc(-c4nc(NCC5CCOCC5)ccc4Cl)c(Cl)cn3)CC2)CC1` [Compound 348, 3,5′-dichloro-N6-((tetrahydro-2H-pyran-4-yl)methyl)-N2′-(trans-4-(1,1-dioxo-tetrahydro-2H-thiopyran-4-ylamino)cyclohexyl)-2,4′-bipyridine-2′,6-diamine] as the compound, how does the IC50 (Cdk9/cyclinT1) read?
Answer: Its IC50 is 2 nM.

Question: With `COC[C@@H](C)N[C@H]1CC[C@H](Nc2cc(-c3cccc(NCC4(CO)CCOCC4)n3)c(Cl)cn2)CC1` [Compound 349, (4-((5′-chloro-2′-(trans-4-((R)-1-methoxypropan-2-ylamino)cyclohexylamino)-2,4′-bipyridin-6-ylamino)methyl)tetrahydro-2H-pyran-4-yl)methanol] as the compound, how does the IC50 (Cdk9/cyclinT1) read?
Answer: Its IC50 is 1 nM.

Question: For `COC[C@@H](C)N[C@H]1CC[C@H](Nc2cc(-c3cccc(NCC4(C#N)CCOCC4)n3)c(Cl)cn2)CC1` [Compound 358, 4-((5′-chloro-2′-((1R,4r)-4-((R)-1-methoxypropan-2-ylamino)cyclohexylamino)-2,4′-bipyridin-6-ylamino)methyl)tetrahydro-2H-pyran-4-carbonitrile], which IC50 (Cdk9/cyclinT1) is on record?
Answer: Its IC50 is 0.17 nM.

Question: With `N#CC1(CNc2cccc(-c3cc(N[C@H]4CC[C@H](O)CC4)ncc3Cl)n2)CCOCC1` [Compound 359, 4-((5′-chloro-2′-((1r,4r)-4-hydroxycyclohexylamino)-2,4′-bipyridin-6-ylamino)methyl)tetrahydro-2H-pyran-4-carbonitrile] as the compound, how does the IC50 (Cdk9/cyclinT1) read?
Answer: The IC50 was 0.24 nM.

Question: For `CCN[C@H]1CC[C@H](Nc2cc(-c3cccc(NCC4(C#N)CCOCC4)n3)c(Cl)cn2)CC1` [Compound 360, 4-((5′-chloro-2′-((1r,4r)-4-(ethylamino)cyclohexylamino)-2,4′-bipyridin-6-ylamino)methyl)tetrahydro-2H-pyran-4-carbonitrile], which IC50 (Cdk9/cyclinT1) is on record?
Answer: The IC50 was 0.28 nM.

Question: With `CN(C)[C@H]1CC[C@H](Nc2cc(-c3cccc(NCC4(C#N)CCOCC4)n3)c(Cl)cn2)CC1` [Compound 361, 4-((5′-chloro-2′-((1r,4r)-4-(dimethylamino)cyclohexylamino)-2,4′-bipyridin-6-ylamino)methyl)tetrahydro-2H-pyran-4-carbonitrile] as the compound, how does the IC50 (Cdk9/cyclinT1) read?
Answer: The IC50 was 0.3 nM.

Question: With `COC[C@@H](C)N[C@H]1CC[C@H](Nc2cc(-c3cccc(NCC4(C)CCS(=O)(=O)CC4)n3)c(Cl)cn2)CC1` [Compound 365] as the compound, how does the IC50 (Cdk9/cyclinT1) read?
Answer: The IC50 was 0.7 nM.

Question: For `CCN(CC)[C@H]1CC[C@H](Nc2cc(-c3cccc(NCC4(C#N)CCOCC4)n3)c(Cl)cn2)CC1` [Compound 366, 4-((5′-chloro-2′-((1r,4r)-4-(diethylamino)cyclohexylamino)-2,4′-bipyridin-6-ylamino)methyl)tetrahydro-2H-pyran-4-carbonitrile], which IC50 (Cdk9/cyclinT1) is on record?
Answer: The IC50 was 1 nM.

Question: With `COC[C@@H](C)N[C@H]1CC[C@H](Nc2cc(-c3ccc(F)c(NCC(CO)CO)n3)c(Cl)cn2)CC1` [Compound 367, 2-((5′-chloro-5-fluoro-2′-((1R,4r)-4-((R)-1-methoxypropan-2-ylamino)cyclohexylamino)-2,4′-bipyridin-6-ylamino)methyl)propane-1,3-diol] as the compound, how does the IC50 (Cdk9/cyclinT1) read?
Answer: The IC50 was 3.1 nM.

Question: With “(S)-3-(trans-4-(3,5′-dichloro-6-((tetrahydro-2H-pyran-4-yl)methyl)amino-2,4′-bipyridin-2′-yl-amino)cyclohexylamino)-1,1,1-trifluoropropan-2-ol [Compound 289]” as the compound, how does the IC50 (Cdk9/cyclinT1) read?
Answer: The IC50 was 4 nM.
